Laboratory results reported in PubChem BioAssay (NCI).
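Growth conditions: 96-well plates. Treatment: test compound, 48 hours, 5 concentrations. Analysis: linear interpolation between bracketing concentrations; unreached endpoints set to highest concentration. The concentration for 50% growth inhibition is given as GI50. TGI: total growth inhibition.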

Tests used:
Test in all cases: inhibition of tumour cell growth, NCI panel, 48 h
[1] = system: OVCAR-4 ovarian
[2] = system: MCF7 breast
[3] = system: HT29 colon
[4] = system: NCI-H522 lung
[5] = system: 786-0 renal
[6] = system: HL-60(TB) leukemia
[7] = system: UACC-62 melanoma
[8] = system: BT-549 breast
[9] = system: DU-145 prostate
[10] = system: SNB-19 CNS
[11] = system: MALME-3M melanoma
[12] = system: HS 578T breast
[13] = system: SN12C renal
[14] = system: A549 NSCLC
[15] = system: SK-OV-3 ovarian
[16] = system: A498 renal
[17] = system: RXF 393 renal
[18] = system: MOLT-4 leukemia
[19] = system: K-562 leukemia
[20] = system: SF-539 CNS
[21] = system: OVCAR-5 ovarian
[22] = system: SK-MEL-5 melanoma
[23] = system: OVCAR-8 ovarian
[24] = system: ACHN renal
[25] = system: SR leukemia
[26] = system: COLO 205 colon
[27] = system: MDA-MB-435
[28] = system: MDA-MB-231 breast
[29] = system: PC-3 prostate
[30] = system: OVCAR-3 ovarian
[31] = system: TK-10 renal
[32] = system: HCT-116 colon
[33] = system: CCRF-CEM leukemia
[34] = system: HCT-15 colon
[35] = system: M14 melanoma
[36] = system: UACC-257 melanoma
[37] = system: HCC-2998 colon
[38] = system: U251 CNS
[39] = system: RPMI-8226 leukemia
[40] = system: HOP-62 NSCLC
[41] = system: SNB-75 CNS
[42] = system: IGROV1 ovarian
[43] = system: NCI-H460 lung
[44] = system: CAKI-1 renal
[45] = system: HOP-92 NSCLC
[46] = system: SK-MEL-2 melanoma
[47] = system: NCI-H226 lung
[48] = system: SW-620 colon
[49] = system: SF-295 CNS
[50] = system: UO-31 renal
[51] = system: KM12 colon
[52] = system: LOX IMVI melanoma
[53] = system: NCI-H23 lung
[54] = system: SK-MEL-28 melanoma
[55] = system: SF-268 CNS
[56] = system: NCI/ADR-RES ovarian

COc1ccc(NC(=O)COc2ccccc2)c(C(N)=O)c1 showed a GI50 [1] of over 44.8 µM, a TGI [1] of over 100 µM and a GI50 [2] of 0.538 µM. It also gave a TGI [2] of over 100 µM, a GI50 [3] of 0.43 µM and a TGI [3] of over 100 µM. For the same compound, the GI50 [4] was 0.812 µM, the TGI [4] was 13.3 µM and the GI50 [5] was 2.18 µM. For the same compound, the TGI [5] was 49.4 µM, the GI50 [6] was 0.368 µM and the TGI [6] was over 100 µM. The GI50 [7] was 1.18 µM, the TGI [7] was over 81.2 µM and the GI50 [8] was 0.621 µM. For the same compound, the TGI [8] was over 100 µM, the GI50 [9] was 2.31 µM and the TGI [9] was over 62.2 µM. It also gave a GI50 [10] of 1.9 µM, a TGI [10] of over 68.9 µM and a GI50 [11] of 69 µM. For the same compound, the TGI [11] was over 100 µM, the GI50 [12] was 0.871 µM and the TGI [12] was 97.1 µM. The GI50 [13] was 5.53 µM, the TGI [13] was over 100 µM and the GI50 [14] was 1.09 µM. It also gave a TGI [14] of over 100 µM, a GI50 [15] of 3.35 µM and a TGI [15] of over 100 µM. For the same compound, the GI50 [16] was 0.757 µM, the TGI [16] was 8.38 µM and the GI50 [17] was 1.9 µM. The TGI [17] was 13.5 µM, the GI50 [18] was 2.67 µM and the TGI [18] was over 100 µM. The GI50 [19] was 0.348 µM, the TGI [19] was over 100 µM and the GI50 [20] was 0.506 µM. It also gave a TGI [20] of 4.01 µM, a GI50 [21] of 7.14 µM and a TGI [21] of over 100 µM. The GI50 [22] was 1.11 µM, the TGI [22] was over 76.2 µM and the GI50 [23] was 3.01 µM. It also gave a TGI [23] of over 100 µM, a GI50 [24] of 2.98 µM and a TGI [24] of over 100 µM. For the same compound, the GI50 [25] was 0.466 µM, the TGI [25] was over 50.2 µM and the GI50 [26] was 0.505 µM. The TGI [26] was 6.56 µM, the GI50 [27] was 0.156 µM and the TGI [27] was 0.845 µM. For the same compound, the GI50 [28] was 1.91 µM, the TGI [28] was over 63 µM and the GI50 [29] was 0.712 µM. It also gave a TGI [29] of over 100 µM, a GI50 [30] of 0.403 µM and a TGI [30] of 2.88 µM. For the same compound, the GI50 [31] was 18.3 µM, the TGI [31] was over 100 µM and the GI50 [32] was 0.588 µM. For the same compound, the TGI [32] was over 100 µM, the GI50 [33] was 0.961 µM and the TGI [33] was over 100 µM. For the same compound, the GI50 [34] was 0.523 µM, the TGI [34] was over 100 µM and the GI50 [35] was 0.499 µM. It also gave a TGI [35] of over 100 µM, a GI50 [36] of over 100 µM and a TGI [36] of over 100 µM. For the same compound, the GI50 [37] was 3.2 µM, the TGI [37] was over 87.3 µM and the GI50 [38] was 0.742 µM. It also gave a TGI [38] of 20.1 µM, a GI50 [39] of 1.93 µM and a TGI [39] of over 55.2 µM. The GI50 [40] was 1.07 µM, the TGI [40] was 43.4 µM and the GI50 [41] was 0.398 µM. The TGI [41] was 11.2 µM, the GI50 [42] was 4.71 µM and the TGI [42] was over 100 µM. It also gave a GI50 [43] of 0.605 µM, a TGI [43] of over 56.7 µM and a GI50 [44] of 1.09 µM. The TGI [44] was over 100 µM, the GI50 [45] was 2.87 µM and the TGI [45] was over 78 µM. It also gave a GI50 [46] of 0.729 µM, a TGI [46] of over 83.2 µM and a GI50 [47] of 20.9 µM. For the same compound, the TGI [47] was over 100 µM, the GI50 [48] was 0.511 µM and the TGI [48] was over 100 µM. The GI50 [49] was 0.644 µM, the TGI [49] was 16.5 µM and the GI50 [50] was 6.99 µM. For the same compound, the TGI [50] was over 100 µM, the GI50 [51] was 0.52 µM and the TGI [51] was over 50.3 µM. The GI50 [52] was 3.14 µM, the TGI [52] was over 100 µM and the GI50 [53] was 2.61 µM. It also gave a TGI [53] of 35.5 µM, a GI50 [54] of 6.13 µM and a TGI [54] of over 100 µM. It also gave a GI50 [55] of 4.25 µM, a TGI [55] of over 75.1 µM and a GI50 [56] of 0.574 µM. The TGI [56] was 11.9 µM.
